Read-outs that look alike come from different tables or passages of the source.
Columns and labels:
Aβ42 production = assay: Inhibition of Aβ42 production in H4 neuroglioma cells stably expressing human APP695 (MSD electrochemiluminescence); type: cell-based; settings: H4 neuroglioma cells expressing human APP695, 22 hours incubation; Table 4a
Method: (§1) Cells were plated out to near confluency. The compounds to be tested were received as 10 mM stocks in 100% DMSO. A dilution series was initially generated in 100% DMSO and then diluted 200-fold in cell culture media such that the tested concentration range was 30 μM to 0.1 nM and the final DMSO concentration was 0.5%. The diluted compounds were incubated with the cells for 22 hours in an incubator at 37° C. and 5% CO2. Aβ42 levels were measured post-incubation from the supernatant of the cells using an Aβ42 specific electrochemiluminescence assay provided by Meso Scale Discovery (Catalog #L21CA-1). The measurement of Aβ42 levels were performed according to the manufacturer's protocol.

Aβ total = Aβ total levels in H4 neuroglioma cells stably expressing human APP695 (MSD electrochemiluminescence); type: cell-based; settings: selectivity ratio vs. Aβtotal, Table 4a
Method: as §1
Aβ total levels were likewise determined using a specific electrochemiluminescence assay provided by Meso Scale Discovery (Catalog #L21ZA-1) according to the manufacturer's protocol.

ABL1 = ABL1 (Homo sapiens, UniProt P00519); assay: Z'-LYTE SelectScreen biochemical kinase assay ABL1
Excerpt: (§2) Thermo Fisher Scientific SelectScreen™ Biochemical Kinase Profiling Service Z′-LYTE™ Screening Protocol and Assay Conditions Assay Theory
(§3) The […] biochemical assay employs a fluorescence-based, coupled-enzyme format and is based on the differential sensitivity of phosphorylated and non-phosphorylated peptides to proteolytic cleavage. The peptide substrate is labeled with two fluorophores—one at each end—that make up a FRET pair. In the primary reaction, the kinase transfers the gamma-phosphate of ATP to a single tyrosine, serine or threonine residue in a synthetic FRET-peptide. In the secondary reaction, a site-specific protease recognizes and cleaves non-phosphorylated FRET-peptides. Phosphorylation of FRET-peptides suppresses cleavage by the Development Reagent. Cleavage disrupts FRET between the donor (i.e., coumarin) and acceptor (i.e., fluorescein) fluorophores on the FRET-peptide, whereas uncleaved, phosphorylated FRET-peptides maintain FRET. A ratiometric method, which calculates the ratio (Emission Ratio=Coumarin emission (445 nm)/Fluorescein emission (520 nm)) of donor emission to acceptor emission after excitation of the donor fluorophore at 400 nm, is used to quantitate reaction progress, as shown in the equation below. A significant benefit of this ratiometric method for quantitating reaction progress is the elimination of well-to-well variations in FRET-peptide concentration and signal intensities. As a result, the assay yields very high Z′-factor values (>0.7) at a low percent phosphorylation. Both cleaved and uncleaved FRET-peptides contribute to the fluorescence signals and therefore to the Emission Ratio. The extent of phosphorylation of the FRET-peptide can be calculated from the Emission Ratio. The Emission Ratio will remain low if the FRET-peptide is phosphorylated (i.e., no kinase inhibition) and will be high if the FRET-peptide is non-phosphorylated (i.e., kinase inhibition).
(§4) The Test Compounds are screened in 1% DMSO (final) in the well. For 10 point titrations, 3-fold serial dilutions are conducted from the starting concentration of the customer's choosing.
(§5) All Peptide/Kinase Mixtures are diluted to a 2× working concentration in the appropriate Kinase Buffer (see section Kinase Specific Assay Conditions for a complete description).
(§6) All ATP Solutions are diluted to a 4× working concentration in Kinase Buffer (50 mM HEPES pH 7.5, 0.01% BRIJ-35, 10 mM MgCl2, 1 mM EGTA). ATP Km apparent is previously determined using a Z″-LYTE assay.
(§7) The Development Reagent is diluted in Development Buffer (see section Kinase-Specific Assay Conditions—Direct and Cascade for a complete description).
(§8) Bar-coded Corning, low volume NBS, black 384-well plate (Corning Cat. #4514) • 1. 100 nL—100× Test Compound in 100% DMSO • 2. 2.4 μL—Kinase buffer • 3. 5 μL—2× Peptide/Kinase Mixture • 4. 2.5 μL—4×ATP Solution • 5. 30—second plate shake • 6. 60—minute Kinase Reaction incubation at room temperature • 7. 5 μL—Development Reagent Solution • 8. 30—second plate shake • 9. 60—minute Development Reaction incubation at room temperature • 10. Read on fluorescence plate reader and analyze the data Z′-LYTE Assay Controls
(§9) SelectScreen Kinase Profiling Service uses XLfit from IDBS. The dose response curve is curve fit to model number 205 (sigmoidal dose-response model).
(§10) The 2×ABL1/Tyr 02 mixture is prepared in 50 mM HEPES pH 7.5, 0.01% BRIJ-35, 10 mM MgCl2, 1 mM EGTA. The final 10 μL Kinase Reaction consists of 0.29-1.26 ng ABL1 and 2 μM Tyr 02 in 50 mM HEPES pH 7.5, 0.01% BRIJ-35, 10 mM MgCl2, 1 mM EGTA. After the 1 hour Kinase Reaction incubation, 5 μL of a 1:128 dilution of Development Reagent A is added.

RET = RET (Homo sapiens, UniProt P07949); assay: Z'-LYTE SelectScreen biochemical kinase assay RET
Excerpt: as §2, §3, §4, §5, §6, §7, §8, §9
as §10, with “2×RET/Tyr” for “2×ABL1/Tyr”, “0.49-3.64” for “0.29-1.26”, “RET” for “ABL1”

RPS6KB1 (p70S6K) = RPS6KB1 (p70S6K) (Homo sapiens, UniProt P23443); assay: Z'-LYTE SelectScreen biochemical kinase assay RPS6KB1 (p70S6K)
Excerpt: as §2, §3, §4, §5, §6, §7, §8, §9
as §10, with “2×RPS6 KB1 (p70S6K)/Ser/Thr 07” for “2×ABL1/Tyr 02”, “2.87-17.7” for “0.29-1.26”, “RPS6 KB1 (p70S6K)” for “ABL1”, “Ser/Thr 07” for “Tyr 02”, “1:45000” for “1:128”

[1] = 10 μmolar compound concentration, ATP at Km app, read-out: ABL1 inhibition
[2] = read-out: % Inhibition mean ABL1
[3] = 10 μmolar compound concentration, ATP at Km app, read-out: RET inhibition
[4] = read-out: % Inhibition mean RET
[5] = 10 μmolar compound concentration, ATP at Km app, read-out: RPS6KB1 (p70S6K) inhibition
[6] = read-out: % Inhibition mean RPS6KB1 (p70S6K)

Sequence of RET (P07949 29-1114): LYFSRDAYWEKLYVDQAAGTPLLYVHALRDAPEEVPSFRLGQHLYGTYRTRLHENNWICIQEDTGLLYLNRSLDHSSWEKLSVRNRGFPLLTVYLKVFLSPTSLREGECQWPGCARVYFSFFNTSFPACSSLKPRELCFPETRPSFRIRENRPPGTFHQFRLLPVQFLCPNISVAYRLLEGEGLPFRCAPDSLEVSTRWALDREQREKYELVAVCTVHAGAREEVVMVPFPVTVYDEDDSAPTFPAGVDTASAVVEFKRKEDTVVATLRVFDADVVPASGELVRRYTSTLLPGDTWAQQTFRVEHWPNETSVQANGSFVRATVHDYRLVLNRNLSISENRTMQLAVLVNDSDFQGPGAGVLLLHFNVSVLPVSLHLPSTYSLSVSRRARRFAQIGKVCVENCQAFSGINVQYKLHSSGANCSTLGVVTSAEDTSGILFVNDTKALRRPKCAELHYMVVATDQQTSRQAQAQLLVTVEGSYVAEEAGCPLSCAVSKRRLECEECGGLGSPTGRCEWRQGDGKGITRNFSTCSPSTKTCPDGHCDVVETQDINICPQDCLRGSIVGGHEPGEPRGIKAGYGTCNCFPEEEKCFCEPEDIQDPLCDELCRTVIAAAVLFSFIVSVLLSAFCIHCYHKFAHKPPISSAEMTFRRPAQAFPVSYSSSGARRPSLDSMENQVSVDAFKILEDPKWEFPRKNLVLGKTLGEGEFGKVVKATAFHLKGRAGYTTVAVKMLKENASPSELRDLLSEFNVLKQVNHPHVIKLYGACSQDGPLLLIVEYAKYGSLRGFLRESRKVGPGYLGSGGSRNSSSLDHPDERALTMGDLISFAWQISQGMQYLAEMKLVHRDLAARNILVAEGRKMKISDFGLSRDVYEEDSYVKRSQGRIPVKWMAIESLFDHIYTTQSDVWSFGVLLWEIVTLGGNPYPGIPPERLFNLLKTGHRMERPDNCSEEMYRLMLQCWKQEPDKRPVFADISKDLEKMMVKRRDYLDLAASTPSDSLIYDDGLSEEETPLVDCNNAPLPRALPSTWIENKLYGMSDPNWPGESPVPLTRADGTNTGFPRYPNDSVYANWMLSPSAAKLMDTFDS
Sequence of ABL1 (P00519 whole entry): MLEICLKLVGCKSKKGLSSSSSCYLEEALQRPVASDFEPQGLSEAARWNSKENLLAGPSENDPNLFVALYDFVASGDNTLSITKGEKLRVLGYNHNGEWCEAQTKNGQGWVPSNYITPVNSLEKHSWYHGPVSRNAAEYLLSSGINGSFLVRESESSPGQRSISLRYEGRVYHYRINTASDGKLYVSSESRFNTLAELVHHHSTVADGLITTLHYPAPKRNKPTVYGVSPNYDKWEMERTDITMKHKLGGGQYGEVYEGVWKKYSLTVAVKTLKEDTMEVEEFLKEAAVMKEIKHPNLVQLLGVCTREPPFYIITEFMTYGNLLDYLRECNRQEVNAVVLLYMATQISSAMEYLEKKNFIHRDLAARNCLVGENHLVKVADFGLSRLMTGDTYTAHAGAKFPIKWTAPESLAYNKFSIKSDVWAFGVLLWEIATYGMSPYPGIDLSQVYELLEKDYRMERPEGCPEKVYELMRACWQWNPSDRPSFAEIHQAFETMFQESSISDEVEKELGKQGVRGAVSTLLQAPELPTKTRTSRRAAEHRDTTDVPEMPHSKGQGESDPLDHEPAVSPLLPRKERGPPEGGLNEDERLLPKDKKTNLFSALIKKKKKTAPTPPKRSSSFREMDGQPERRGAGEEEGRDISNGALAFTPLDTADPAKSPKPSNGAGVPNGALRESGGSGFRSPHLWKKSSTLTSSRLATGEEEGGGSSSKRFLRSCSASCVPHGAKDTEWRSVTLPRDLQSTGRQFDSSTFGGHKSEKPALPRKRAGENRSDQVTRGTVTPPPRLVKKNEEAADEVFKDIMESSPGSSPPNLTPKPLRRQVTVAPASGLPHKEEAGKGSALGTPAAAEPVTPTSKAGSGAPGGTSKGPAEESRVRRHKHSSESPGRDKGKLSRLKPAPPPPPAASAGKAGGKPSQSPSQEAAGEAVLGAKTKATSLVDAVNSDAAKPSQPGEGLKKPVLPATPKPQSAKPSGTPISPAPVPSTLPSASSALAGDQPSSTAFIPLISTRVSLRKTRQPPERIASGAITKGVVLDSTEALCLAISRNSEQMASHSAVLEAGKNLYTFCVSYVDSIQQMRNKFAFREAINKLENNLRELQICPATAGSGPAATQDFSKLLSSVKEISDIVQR
Sequence of RPS6KB1 (p70S6K) (P23443 whole entry): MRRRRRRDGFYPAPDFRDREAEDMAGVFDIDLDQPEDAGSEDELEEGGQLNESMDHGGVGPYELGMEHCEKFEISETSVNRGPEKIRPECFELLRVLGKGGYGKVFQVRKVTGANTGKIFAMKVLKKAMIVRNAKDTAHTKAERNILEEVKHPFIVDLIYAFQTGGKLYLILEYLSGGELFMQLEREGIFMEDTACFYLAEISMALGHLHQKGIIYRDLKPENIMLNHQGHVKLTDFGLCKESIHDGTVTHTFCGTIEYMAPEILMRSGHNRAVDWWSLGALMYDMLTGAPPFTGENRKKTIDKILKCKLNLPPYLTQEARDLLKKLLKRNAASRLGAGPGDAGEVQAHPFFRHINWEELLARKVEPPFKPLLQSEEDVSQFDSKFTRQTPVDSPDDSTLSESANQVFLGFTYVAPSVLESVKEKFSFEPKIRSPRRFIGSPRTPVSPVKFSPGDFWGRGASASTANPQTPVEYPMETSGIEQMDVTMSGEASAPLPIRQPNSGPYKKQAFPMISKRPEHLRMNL

IC50 (Aβ42 production)	inhibition at 10 µM (ABL1; [1])	inhibition at 10 µM (ABL1; [2])	inhibition at 10 µM (RET; [3])	inhibition at 10 µM (RET; [4])	inhibition at 10 µM (RPS6KB1 (p70S6K); [5])	inhibition at 10 µM (RPS6KB1 (p70S6K); [6])	SMILES	Ratio AβTotal IC50/Aβ42 IC50 (Aβ total)
194 nM	< 40%	13%	< 40%	23%	< 40%	22%	CCn1ncc2c1CC[C@H](Nc1nc3c(-c4ccc(F)c(Cl)c4)cccn3n1)C2 [Example S-61, (S)-[8-(3-Chloro-4-fluoro-phenyl)-[1,2,4]triazolo[1,5-a]pyridine-2-yl]-(1-ethyl-4,5,6,7-tetrahydro-1H-indazol-5-yl)-amine]	42
40 nM	< 40%	21%	40 to 80%	62%	< 40%	24%	CCn1ncc2c1CCC(Nc1nc3c(-c4cncc(Cl)c4)cccn3n1)C2 (stereo not shown) [Example 73, [8-(5-Chloro-pyridin-3-yl)-[1,2,4]triazolo[1,5-a]pyridine-2-yl]-(1-ethyl-4,5,6,7-tetrahydro-1H-indazol-5-yl)-amine]	420
670 nM	< 40%	11%	< 40%	24%	< 40%	23%	CCn1ncc2c1CCC(Nc1nc3c(-c4ccc(C)nc4)cccn3n1)C2 (stereo not shown) [Example 67, (1-Ethyl-4,5,6,7-tetrahydro-1H-indazol-5-yl)-[8-(6-methyl-pyridin-3-yl)-[1,2,4]triazolo[1,5-a]pyridine-2-yl]-amine]	45
180 nM	< 40%	21%	< 40%	21%	< 40%	11%	CCn1ncc2c1CCC(Nc1nc3c(-c4ccc(F)cc4)cccn3n1)C2 (stereo not shown) [Example 55, (1-Ethyl-4,5,6,7-tetrahydro-1H-indazol-5-yl)-[8-(4-fluoro-phenyl)-[1,2,4]triazolo[1,5-a]pyridine-2-yl]-amine]	120
500 nM	< 40%	13%	< 40%	16%	< 40%	31%	CCn1ncc2c1CCC(Nc1nc3c(-c4cccnc4OC)cccn3n1)C2 (stereo not shown) [Example 69, (1-Ethyl-4,5,6,7-tetrahydro-1H-indazol-5-yl)-[8-(2-methoxy-pyridin-3-yl)-[1,2,4]triazolo[1,5-a]pyridine-2-yl]-amine]	60
200 nM	< 40%	15%	< 40%	32%	< 40%	-3%	CCn1ncc2c1CCC(Nc1nc3c(-c4cncc(OC)c4)cccn3n1)C2 (stereo not shown) [Example 70, (1-Ethyl-4,5,6,7-tetrahydro-1H-indazol-5-yl)-[8-(5-methoxy-pyridin-3-yl)-[1,2,4]triazolo[1,5-a]pyridine-2-yl]-amine]	60
3130 nM	< 40%	12%	< 40%	15%	< 40%	1%	CCc1nn(C)c2c1CCC(Nc1nc3c(-c4ccc(F)cc4C)cccn3n1)C2 (stereo not shown) [Example 54, (3-Ethyl-1-methyl-4,5,6,7-tetrahydro-1H-indazol-6-yl)-[8-(4-fluoro-2-methyl-phenyl)-[1,2,4]triazolo[1,5-a]pyridine-2-yl]-amine]	10
430 nM	< 40%	13%	< 40%	20%	< 40%	12%	Cc1cc(F)ccc1-c1cccn2nc(NC3CCc4c(cnn4C(C)C)C3)nc12 (stereo not shown) [Example 44, [8-(4-fluoro-2-methyl-phenyl)-[1,2,4]triazolo[1,5-a]pyridine-2-yl]-(1-isopropyl-4,5,6,7-tetrahydro-1H-indazol-5-yl)-amine]	64
350 nM	< 40%	15%	< 40%	20%	< 40%	3%	CCn1ncc2c1CCC(Nc1nc3c(-c4cccnc4)cccn3n1)C2 (stereo not shown) [Example 63, (1-Ethyl-4,5,6,7-tetrahydro-1H-indazol-5-yl)-(8-pyridin-3-yl-[1,2,4]triazolo[1,5-a]pyridine-2-yl)-amine]	85
120 nM	< 40%	28%	< 40%	28%	< 40%	17%	CCn1ncc2c1CCC(Nc1nc3c(-c4cnccc4OC)cccn3n1)C2 (stereo not shown) [Example 68, (1-Ethyl-4,5,6,7-tetrahydro-1H-indazol-5-yl)-[8-(4-methoxy-pyridin-3-yl)-[1,2,4]triazolo[1,5-a]pyridine-2-yl]-amine]	241
3400 nM	< 40%	24%	< 40%	30%	< 40%	7%	Cc1cc(F)ccc1-c1cccn2nc(NC3CCc4c(cnn4CC(C)C)C3)nc12 (stereo not shown) [Example 45, [8-(4-fluoro-2-methyl-phenyl)-[1,2,4]triazolo[1,5-a]pyridine-2-yl]-(1-isobutyl-4,5,6,7-tetrahydro-1H-indazol-5-yl)-amine]	4

Reference: US11339161B2, “Triazolo pyridines as modulators of gamma-secretase” (Boehringer Ingelheim International GmbH, priority 2017, dated 2022)
